Assay results: publication PMC9486168, “Protein-protein interaction-based high throughput screening for adenylyl cyclase 1 inhibitors: Design, implementation, and discovery of a novel chemotype” (Frontiers in Pharmacology, 2022)
Values joined by “and” are separate entries in the source; they are usually repeats but may differ in a detail not shown here. Equal entries are not always repeated.

Key:
[1] = target: T1, AC1-C1b/CaM (Homo sapiens, UniProt P0DP23); assay: AC1-C1b/CaM fluorescence polarization (FP) assay; format: binding; conditions: for IC50: 100 nM AC1-C1b, 100 nM GST-CaM, 95% CI in brackets; for Ki: Cheng-Prusoff from FP IC50 and Kd; for AC1-CaM FP % inhib: relative to 100 μM CDZ (100% inhibition), highest concentration tested
T1 construct: made in house; host or cells: E. coli BL21-CodonPlus (DE3)-RIPL

[2] = target: T2, AC8/CaM PPI (Homo sapiens, UniProt P0DP23); assay: AC8/CaM NanoBiT assay in HEK293T cells; format: cell-based, rat; conditions: for IC50: HEK293T, thapsigargin-stimulated, AUC, read-out: Nanobit: AC8-CaM IC50 (μM ± SEM)
T2 construct: confirmed as an AC1/AC8 non-selective hit against full-length AC1- and AC8-CaM in the NanoBiT assay; The hCaM residues 1–149, residues 1–1,248 of rat AC8 (rAC8); expressed in transfected cells; host or cells: HEK293T, transient transfection

[3] = target: T3, AC8-Nt/CaM (Homo sapiens, UniProt P0DP23); assay: AC8-Nt/CaM FP counterscreen assay; format: binding; conditions: for Ki / Ki (μM) AC8 NT: Cheng-Prusoff from FP IC50 and Kd, n/i given where none; for Ki ratio (AC8 NT/AC1): ratio >1: more potent in AC1/CaM FP;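 as to all read-outs here: fluorescence polarization of AC peptide binding GST-CaM in HEPES buffer with CaCl2, compound preincubated with CaM 30 min, peptide read after 2 h at room temperature in dark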
T3 construct: made in house; host or cells: E. coli BL21-CodonPlus (DE3)-RIPL

[4] = target: T4, AC1/CaM PPI (Homo sapiens, UniProt P0DP23); assay: AC1/CaM NanoBiT assay in HEK293T cells; format: cell-based; conditions: HEK293T, thapsigargin-stimulated, AUC; for IC50: read-out: Nanobit: AC1-CaM IC50 (μM ± SEM)
T4 construct: human AC1 (hAC1) residues 1–1,118 were cloned; The hCaM residues 1–149, residues 1–1,248 of rat AC8 (rAC8); expressed in transfected cells; host or cells: HEK293T, transient transfection

[5] = target: T5, AC8-C2b/CaM (Homo sapiens, UniProt P0DP23); assay: AC8-C2b/CaM FP counterscreen assay; format: binding; conditions: for Ki / Ki (μM) AC8 C2b: Cheng-Prusoff from FP IC50 and Kd, n/i given where none; for Ki ratio (AC8-C2b/AC1): ratio >1: more potent in AC1/CaM FP;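 as to all read-outs here: fluorescence polarization of AC peptide binding to GST-CaM in HEPES buffer with KCl and 50 µM CaCl2, compound preincubated 30 min with GST-CaM, DMSO and calmidazolium as controls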
T5 construct: made in house; host or cells: E. coli BL21-CodonPlus (DE3)-RIPL

[6] = CellTiter-Glo 2.0 cell viability assay; format: cell-based; conditions: human, HEK293T cells, pH 7.4; at the compound's AC1/CaM NanoBiT IC50 concentration; read-out: % Viable Cells at AC1 IC50;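 also: luminescence read-out after 30 min compound exposure at 37 °C in HEPES-buffered HBSS, scaled to vehicle-treated cells as 100% and cell-free buffer wells as 0%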
[7] = target: T6, AC1 (Homo sapiens, UniProt Q08828); assay: cAMP accumulation assay, AC1-HEK Δ3/6 KO cells; format: cell-based; conditions: for IC50: initial examination, 10,000 cells per well, 3 μM A23187, 1 h RT, read-out: AC1 IC50 ± SEM
T6 construct: expressed in transfected cells
T6 sequence (Q08828 whole entry): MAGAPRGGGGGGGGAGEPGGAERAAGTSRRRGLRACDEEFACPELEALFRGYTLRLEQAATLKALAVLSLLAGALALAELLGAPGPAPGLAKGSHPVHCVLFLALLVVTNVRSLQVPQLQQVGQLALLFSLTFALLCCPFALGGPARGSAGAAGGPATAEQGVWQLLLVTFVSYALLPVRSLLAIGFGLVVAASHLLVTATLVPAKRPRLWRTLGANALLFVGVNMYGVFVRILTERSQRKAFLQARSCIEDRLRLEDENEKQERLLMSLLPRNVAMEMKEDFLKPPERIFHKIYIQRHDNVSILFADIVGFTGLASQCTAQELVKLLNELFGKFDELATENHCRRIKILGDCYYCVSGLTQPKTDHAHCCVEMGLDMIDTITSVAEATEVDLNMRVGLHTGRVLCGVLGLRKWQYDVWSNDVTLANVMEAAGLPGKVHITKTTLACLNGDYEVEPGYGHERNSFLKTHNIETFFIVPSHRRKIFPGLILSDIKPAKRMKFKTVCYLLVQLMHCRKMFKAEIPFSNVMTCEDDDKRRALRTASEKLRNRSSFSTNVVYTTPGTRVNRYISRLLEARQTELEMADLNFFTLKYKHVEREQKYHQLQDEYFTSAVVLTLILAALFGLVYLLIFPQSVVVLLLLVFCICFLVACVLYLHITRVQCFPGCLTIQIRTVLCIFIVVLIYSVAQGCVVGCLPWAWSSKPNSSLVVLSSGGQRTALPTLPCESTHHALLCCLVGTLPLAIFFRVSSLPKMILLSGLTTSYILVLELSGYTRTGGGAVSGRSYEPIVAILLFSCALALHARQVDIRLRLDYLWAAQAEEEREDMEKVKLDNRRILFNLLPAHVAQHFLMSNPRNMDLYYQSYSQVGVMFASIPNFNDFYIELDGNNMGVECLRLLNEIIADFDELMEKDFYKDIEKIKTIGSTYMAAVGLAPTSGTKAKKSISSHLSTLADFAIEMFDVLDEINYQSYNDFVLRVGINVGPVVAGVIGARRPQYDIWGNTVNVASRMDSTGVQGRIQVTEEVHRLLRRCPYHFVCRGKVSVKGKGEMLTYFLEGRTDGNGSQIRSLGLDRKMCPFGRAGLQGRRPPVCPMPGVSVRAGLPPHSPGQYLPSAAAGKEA
Experimental: Cells were then incubated for 1 h at 37°C and 5% CO2. Cells were then treated with varying concentrations of inhibitors for 30 min, followed by treatment with calcium ionophore A23187 (3 μM) in 500 μM 3-isobutyl-1-methylxanthine (IBMX), a phosphodiesterase inhibitor, for 1 h at RT (Sigma Aldrich, St. Louis, MO). Finally, Cisbio HTRF detection reagents were added and incubated for 1–24 h at RT. Plates were read according to manufacturer’s protocol on an HTRF-compatible plate reader at 620 and 665 nm cAMP concentrations were interpolated from a cAMP standard curve. […] For cytotoxicity assays, compounds were tested at 30 μM and this protocol was used with the exception of detection reagents; CellTiter-Glo 2.0 reagent was used according to manufacturer’s protocol and luminescence was read on the Synergy Neo2 plate reader. Data are normalized to cells treated with vehicle (100%) or 2% tween (0%) and are represented as the percent of vehicle, from the average of three independent experiments (N = 3).

| Compound | IC90 [1] | IC50 [1] | IC50 [2] | Ki [1] | Ki [3] | IC50 [4] | Ki [5] | viability at 30 min [6] | AC1-CaM FP % inhib [1] | Ki ratio (AC8 NT/AC1) [3] | Ki ratio (AC8-C2b/AC1) [5] | fold selective for AC8 over AC1 in the NanoBiT assay ([2]; AC8/CaM vs AC1/CaM NanoBiT) | inhibition of AC1 activity (efficacy) ([7]; initial characterization of hits, data not shown) | IC50 [7] | Ki (μM) AC8 NT [3] | Ki (μM) AC8 C2b [5] | Nanobit: AC1-CaM IC50 (μM ± SEM) [4] |
| --- | --- | --- | --- | --- | --- | --- | --- | --- | --- | --- | --- | --- | --- | --- | --- | --- | --- |
| Clc1ccc(C(c2ccc(Cl)cc2)n2cc[n+](CC(OCc3ccc(Cl)cc3Cl)c3ccc(Cl)cc3Cl)c2)cc1 (centres unmarked) [CDZ, Calmidazolium] | ~100 µM | 15.1 µM and ~15 µM |  |  |  |  |  |  |  |  |  |  |  |  |  |  |  |
| CN(C)c1ccc2nc3ccc(=[N+](C)C)cc-3sc2c1 [Compound 2, Methylene Blue] |  | 2.18 µM | 80.3 ± 1.14 µM | 0.51 µM | 3.2 µM | 98 ± 1.14 µM | 0.82 µM | 86% |  |  |  |  |  |  |  |  |  |
| CCCCCCCCCCCCCCCC[N+](C)(C)CCN(Cc1ccc(OC)cc1)c1ncccn1 [Compound 4, Thonzonium] |  | 4.14 µM | 18.5 ± 1.26 µM | 1 µM | 2.7 µM | 29.1 ± 1.2 µM | 3.6 µM | 100% | 94% | 2.7 | 3.7 |  |  |  |  |  |  |
| CCC(C)CC(C)CCCCCCCCC(=O)NC1CC(O)C(NCCN)NC(=O)C2C(O)CCN2C(=O)C(C(O)CCN)NC(=O)C(C(O)C(O)c2ccc(O)cc2)NC(=O)C2CC(O)CN2C(=O)C(C(C)O)NC1=O (centres unmarked) [Compound 5, Caspofungin Acetate] |  | 12.7 µM |  | 3 µM | 6.3 µM |  | 6.2 µM |  | 20% | 2 and 2.1 | 2 and 2.1 |  |  |  |  |  |  |
| CC1=C(CCC(=O)O)c2cc3[nH]c(cc4nc(cc5[nH]c(cc1n2)c(C)c5C(C)O)C(C)=C4C(C)O)c(C)c3CCC(=O)O (centres unmarked) [Compound 6, Hematoporphyrin] |  | 14.7 µM | 11.6 ± 1.24 µM | 3.5 µM | 61.7 µM | 38.4 ± 1.17 µM | 10.1 µM | 95% | 131% | 17.8 | 2.9 | 2- to 4 fold |  |  |  |  |  |
| CN(C(=O)CN(CCO)CC(=O)N(C)C(C)(C)Cc1ccccc1)C(C)(C)Cc1ccccc1 [Compound 8, Oxetacaine] |  | 20 µM | 34.6 ± 1.32 µM | 4.7 µM | 38 µM | 40 ± 1.15 µM | 33.5 µM | 93.3% | 38% | 8.0 | 7.1 |  |  |  |  |  |  |
| CCc1oc2ccccc2c1C(=O)c1cc(Br)c(O)c(Br)c1 [Compound 12, Benzbromarone] |  | 33 µM | 4.16 ± 1.15 µM | 7.8 µM | 52.1 µM | 1.7 ± 1.17 µM | 23.8 µM | 90% | 47% |  |  |  | ~75% | 4.09 ± 2.41 µM |  |  |  |
| CCC12CN3CC(CC)(CN(C1)C31C(=O)N(C)c3ccc(Br)cc31)C2=O (centres unmarked) [Compound 14] |  | 58.2 µM |  | 13.8 µM |  | 84 ± 1.7 µM |  | 100% |  | AC1 Selective | AC1 Selective |  |  |  | n/i | n/i |  |
| CCNC(=O)c1cc2c(=O)n(C)c(=O)n(C)c2s1 [Compound 16] |  | 24.2 µM |  | 5.7 µM |  |  |  |  |  | AC1 Selective | AC1 Selective |  |  |  | n/i | n/i | No Inhibition |
| CN1CCN(CCNC(=O)c2cc3c(=O)n(C)c(=O)n(C)c3s2)CC1 [Compound 17] |  | 75.4 µM |  | 17.8 µM |  |  |  |  | 53% | AC1 Selective | AC1 Selective |  |  |  | n/i | n/i | No Inhibition |
| Cc1ccc(S(=O)(=O)Nc2cc(N3CCCS3(=O)=O)ccc2C)cc1 [Compound 19] |  | 43.4 µM |  | 10.3 µM |  |  |  |  |  | AC1 Selective | AC1 Selective |  |  |  | n/i | n/i | No Inhibition |
| CNC(=O)C1=C(Nc2ccc(N(C)C)cc2)c2ccccc2S1(=O)=O [Compound 20] |  | 43 µM | 70.3 ± 1.13 µM | 10.2 µM | 5.9 µM | 63 ± 1.34 µM | 4.5 µM | 100% | ~70% | 0.58 | 0.44 |  |  | 66.3 ± 33.3 µM |  |  |  |
